In paper PMC2613801 (Bioorganic & medicinal chemistry, 2008):

Columns and labels:
TRPV1 [1] = target: T1, TRPV1 (Rattus norvegicus, UniProt O35433); experiment: capsaicin-induced 45Ca2+-uptake in TRPV1ε-NIH3T3 cells; format: cell-based; conditions: for Hill Slope ± SEM: enhancement of 45Ca2+-uptake in presence of 2 µM capsaicin; for enhancing activity (in words): in presence of 2 µM capsaicin
TRPV1 [2] = target: T1, TRPV1; experiment: capsaicin-induced 45Ca2+-uptake in primary dorsal root ganglion; format: cell-based; conditions: for Hill Slope ± SEM / enhancing activity (in words): primary DRG cells; for Hill Slope ± SEM: ~0.5 µM capsaicin, single assay run in quadruplicate wells; for enhancing activity (in words): in presence of capsaicin
TRPV1 [3] = target: T1, TRPV1; experiment: intracellular Ca2+ imaging; format: cell-based
[4] = target: human A3 adenosine receptor; conditions: read-out: Ki value at the A3 receptor; ref [30]; cited from earlier work

T1 sequence (O35433 whole entry): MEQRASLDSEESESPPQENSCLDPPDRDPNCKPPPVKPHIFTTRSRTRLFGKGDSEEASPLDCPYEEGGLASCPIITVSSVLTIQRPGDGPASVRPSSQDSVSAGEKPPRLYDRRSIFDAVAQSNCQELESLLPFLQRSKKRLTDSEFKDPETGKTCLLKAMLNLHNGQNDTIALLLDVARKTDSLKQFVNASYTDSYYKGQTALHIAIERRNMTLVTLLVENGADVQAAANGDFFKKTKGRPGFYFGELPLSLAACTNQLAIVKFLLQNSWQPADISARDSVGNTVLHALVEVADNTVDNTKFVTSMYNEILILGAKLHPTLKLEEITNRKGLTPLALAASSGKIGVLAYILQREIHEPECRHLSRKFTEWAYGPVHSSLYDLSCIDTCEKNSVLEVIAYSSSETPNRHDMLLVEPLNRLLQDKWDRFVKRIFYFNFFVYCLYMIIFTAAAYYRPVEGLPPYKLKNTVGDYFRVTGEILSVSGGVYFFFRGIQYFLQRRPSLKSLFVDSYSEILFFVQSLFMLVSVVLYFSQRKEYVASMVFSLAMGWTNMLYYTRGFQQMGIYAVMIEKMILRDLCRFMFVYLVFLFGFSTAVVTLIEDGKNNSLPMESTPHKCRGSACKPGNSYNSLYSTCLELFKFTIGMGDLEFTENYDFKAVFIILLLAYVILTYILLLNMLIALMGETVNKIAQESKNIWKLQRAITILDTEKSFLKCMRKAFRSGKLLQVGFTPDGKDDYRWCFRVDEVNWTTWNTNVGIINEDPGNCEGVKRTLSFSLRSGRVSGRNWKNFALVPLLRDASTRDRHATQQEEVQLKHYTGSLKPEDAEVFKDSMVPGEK

| SMILES | Hill Slope ± SEM (TRPV1 [1]) | enhancing activity (in words) (TRPV1 [1]) | other results |
| --- | --- | --- | --- |
| CCOC(=O)C1=C(C)NC(c2cccc(Cl)c2)=C(C(=O)OCC)C1CC (racemic) [Compound 9, 3,5-Diethyl-2-methyl-4-ethyl-6-(3-chlorophenyl)-1,4-(±)-dihydropyridine-3,5-dicarboxylate] | 1.45 ± 0.28 |  | Hill Slope ± SEM (TRPV1 [2]): 2.24 ± 0.53 |
| CCOC(=O)C1=C(C)NC(c2cccc(F)c2)=C(C(=O)OCC)C1CC (racemic) [Compound 10, 3,5-Diethyl-2-methyl-4-ethyl-6-(3-fluorophenyl)-1,4-(±)-dihydropyridine-3,5-dicarboxylate] | 1.98 ± 0.30 |  | EC50 (TRPV1 [2]): 20.5 ± 1.1 µM; Hill Slope ± SEM (TRPV1 [2]): 2.64 ± 0.59 |
| CCOC(=O)C1=C(C)NC(c2ccc(F)cc2)=C(C(=O)OCC)C1CC (racemic) [Compound 11, 3,5-Diethyl-2-methyl-4-ethyl-6-(4-fluorophenyl)-1,4-(±)-dihydropyridine-3,5-dicarboxylate] | 1.86 ± 0.42 |  | EC50 (TRPV1 [2]): 15.7 ± 1.3 µM; Hill Slope ± SEM (TRPV1 [2]): 2.01 ± 0.77 |
| CCOC(=O)C1=C(c2cccc(F)c2)NC(C)=C(C(=O)SCC)C1CC (racemic) [Compound 14, 3-Ethylthio-5-ethyl-2-methyl-4-ethyl-6-(3-fluorophenyl)-1,4-(±)-dihydropyridine-3,5-dicarboxylate] | 1.59 ± 0.33 | strong, dosedependent effects |  |
| CCOC(=O)C1=C(c2ccc(F)cc2)NC(C)=C(C(=O)SCC)C1CC (racemic) [Compound 15, 3-Thioethyl-5-ethyl-2-methyl-4-ethyl-6-(4-fluorophenyl)-1,4-(±)-dihydropyridine-3,5-dicarboxylate] | 1.82 ± 0.33 |  |  |
| CCOC(=O)C1=C(C2CCCCC2)NC(C)=C(C(=O)SCC)C1CC (racemic) [Compound 17, 3-Ethylthio-5-ethyl-2-methyl-4-ethyl-6-cyclohexyl-1,4-(±)-dihydropyridine-3,5-dicarboxylate] |  | inactive |  |
| CCCC1C(C(=O)SCCc2ccccc2)=C(C)NC(c2ccccc2)=C1C(=O)OCC (racemic) [Compound 26, 3-(2-Phenylethylthio)-5-ethyl-2-methyl-4-propyl-6-phenyl-1,4-(±)-dihydropyridine-3,5-dicarboxylate] | 1.14 ± 0.32 |  |  |
| CCOC(=O)C1=C(c2ccc(F)cc2)NC(C)=C(C(=O)SCCc2ccccc2)C1CC (racemic) [Compound 29, 3-(2-Phenylethylthio)-5-ethyl-2-methyl-4-ethyl-6-(4-fluorophenyl)-1,4-(±)-dihydropyridine-3,5-dicarboxylate] | 1.18 ± 0.25 | slightly active |  |
| CCOC(=O)C1=C(c2ccc([N+](=O)[O-])cc2)NC(C)=C(C(=O)SCc2ccccc2)C1CC (racemic) [Compound 31] |  | neutral | enhancing activity (in words) (TRPV1 [2]): inactive |
| CCOC(=O)C1=C(c2ccccc2)N=C(C)/C(=C(/O)SCC)C1CC (stereo not shown) [Compound 12] | 1.55 ± 0.17 |  |  |
| CCCC1C(C(=O)OCC)=C(c2ccccc2)N=C(C)/C1=C(/O)SCC (stereo not shown) [Compound 18] | 1.38 ± 0.23 | strong, dosedependent effects | EC50 (TRPV1 [2]): 10.5 ± 1.1 µM; Hill Slope ± SEM (TRPV1 [2]): 1.47 ± 0.16 |
| CCOC(=O)C1=C(c2ccccc2)N=C(C)/C(=C(/O)SCCOC)C1CC (stereo not shown) [Compound 23] | 1.79 ± 0.17 | strong, dosedependent effects | fold increase in calcium influx (TRPV1 [1]; 2 µM capsaicin): 5.3 fold; peak ratio (340/380, normalized to baseline) (TRPV1 [3]; 200 nM capsaicin in the presence of 10 µM 23, 30 sec, 69 cells): 1.701±0.001 |
| CCOC(=O)C1=C(C)NC(c2ccccc2)=C(C(=O)OCc2ccccc2)C1C#Cc1ccccc1 (stereo not shown) [MRS1191, 1,4-dihydro-2-methyl-6-phenyl-4-(phenylethynyl)-3,5-pyridinedicarboxylic acid, 3-ethyl 5-(phenylmethyl) ester, reference compound] |  | no enhancing effect |  |
| CO/C(O)=C1\C(C)=NC(C)=C([N+](=O)[O-])[C@H]1c1ccccc1C(F)(F)F [S(–)-Bay K 8644, reference compound] |  | not enhancers | enhancing activity (in words) (TRPV1 [2]): not enhancers |
| COc1cc(CNC(=O)CCCC/C=C/C(C)C)ccc1O [capsaicin, reference compound] |  |  | ED100 for capsaicin activation of TRPV1 (TRPV1 [1]; pH 7.5): ~ 2 µM; peak ratio (340/380, normalized to baseline) (TRPV1 [3]; 200 nM capsaicin alone, 30 sec, 98 cells): 1.518±0.001 |
| COC(=O)C1=C(C)NC(C)=C(C(=O)OCCN(C)Cc2ccccc2)C1c1cccc([N+](=O)[O-])c1 (stereo not shown) [nicardipine, reference compound] |  | not enhancers | enhancing activity (in words) (TRPV1 [2]): not enhancers; Ki [4]: 3.25 µM |
